Source: the SangsterLogP compilation
Peptide text beside a SMILES is read from it. * marks the point of attachment. NHtBu = CC(C)(C)N*

Assays:
[1] = method code SF-RC, from DOI: 10.1021/jm000079i, PMID: 10956218; conditions: pH 7.4
[2] = method code SF-HPLC, from DOI: 10.1023/a:1015968113838, PMID: 3247280; conditions: pH 7.4
[3] = method code SF-HPLC, from DOI: 10.1002/jps.23140, PMID: 22499243; conditions: pH 7.4
[4] = method code SF-RC, from DOI: 10.1016/j.nucmedbio.2011.12.002, PMID: 22321533
[5] = method code SF-RC, from DOI: 10.1016/0969-8051(94)00090-7, PMID: 7767321; conditions: pH 7.4
[6] = method code SF-HPLC, from DOI: 10.1016/j.ejps.2013.04.020, PMID: 23624327
[7] = method code SF, from You, R.; Wang, L.; Cong, L.; Wang, Q.; Cai, P.; Yuan, H. (2007). Physicochemical properties of oxymatrine-phospholipid complex. Pharmaceutical Journal of Chinese People's Liberation Army, …; conditions: pH 7.5
[8] = not given; remark: listed apart in the source
[9] = method code SF-AS, from Falk, M.; Luecke, L. (1989). Transport of substances through lipid membranes. 11. Effect of esterification on the dissociation and permeation of orotic acid. Pharmazie, 44(9)647.; conditions: pH 1.2
[10] = pH 7.4
[11] = method code SF-AS, from DOI: 10.1081/jlc-100104900; conditions: pH 1.0
[12] = not given; remark: listed apart in the source
[13] = not given; remark: listed apart in the source
[14] = method code SF-HPLC, from DOI: 10.1016/j.bmcl.2010.02.057, PMID: 20231095; conditions: pH 7.4
[15] = not given; remark: listed apart in the source
[16] = method code SF-HPLC, from DOI: 10.1021/jm00119a020; conditions: pH 7.4
[17] = method code SF-HPLC, from DOI: 10.1002/jps.2600830120, PMID: 8138917; conditions: pH 7.4
[18] = method code SF-AS, from DOI: 10.1021/jm010817i, PMID: 11806714; conditions: pH 7.4
[19] = pH 13.0
[20] = method code SF-RC, from DOI: 10.1016/s0969-8051(03)00050-7, PMID: 12900283; conditions: pH 7.4
[21] = method code SF-AS, from DOI: 10.1248/cpb.41.171; conditions: pH 7.0
[22] = method code SF-AS, from THAKUR, B.; Mehta, U.; TIPNIS, P. (1981). Ortho effect in partition coefficients of some o-benzyloxybenzamides. Indian J Pharm Sci, 43(6)224-226.
[23] = method code SF, from Rodriguez, L.; Zecchi, V.; Tartarini, A. (1984). Partition rate of some nonsteroidal anti-inflammatory agents in a three-phase water/n-octanol/water system. Pharmaceutical Acta Helvetiae, 59(3)95-96.; conditions: pH 12.0
[24] = not given; remark: listed apart in the source
[25] = not given; remark: listed apart in the source
[26] = method code SF-HPLC, from DOI: 10.1897/08-203.1, PMID: 18702564
[27] = not given; remark: listed apart in the source
[28] = method code SF-HPLC, from DOI: 10.1016/j.ejpb.2006.11.002, PMID: 17182232; conditions: pH 7.4
[29] = method code SF-RC, from DOI: 10.1002/jps.2600651126, PMID: 11336; conditions: pH 2.0
[30] = not given; remark: listed apart in the source
[31] = method code SF-RC, from DOI: 10.1016/s0969-8051(01)00264-5, PMID: 11711307; conditions: pH 7.4
[32] = method code SF-RC, from DOI: 10.1023/a:1015892313856, PMID: 1495896; conditions: pH 7.2
[33] = not given; remark: listed apart in the source
[34] = method code SF-GLC, from DOI: 10.1016/0048-3575(86)90042-8
[35] = method code SF, from DOI: 10.3109/00498258709043934, PMID: 3564538
[36] = not given; remark: listed apart in the source
[37] = method code SF-RC, from DOI: 10.1016/j.nucmedbio.2015.07.007, PMID: 26330158; conditions: pH 7.4
[38] = method code SF, from DOI: 10.1584/jpestics.8.69
[39] = method code SF-HPLC, from DOI: 10.1021/js970291i, PMID: 9523983; conditions: pH 7.4
[40] = method code SF-HPLC, from DOI: 10.1023/a:1015823315983, PMID: 1475237; conditions: pH 1.0
[41] = not given; remark: listed apart in the source
[42] = method code SF, from DOI: 10.1016/0378-5173(85)90102-4; conditions: pH 8.0
[43] = method code SF, from DOI: 10.1016/0006-2952(79)90295-8, PMID: 36087
[44] = method code SF-RC, from DOI: 10.1016/s0969-8051(03)00049-0, PMID: 12900282; conditions: pH 7.4

For `O=C1NC(=O)C2(CCCCCCCCCCC2)C(=O)N1`, the logP was 3.51.

In the case of `CN(C)c1ccccc1Sc1ccc(C#N)cc1N`, the logD [1] is reported as 2.71.

For `CCCCC(=O)OCC1OC(n2cc(I)c(=O)[nH]c2=O)CC1O` (stereo not given), the logD [2] was 1.44.

For `CCCCCCOP1(=O)COC(Cn2ccc(N)nc2=O)CO1` (stereo not given), the logD [3] was 2.84.

Work on `Cc1cn(C2CC(O)C(CO)S2)c(=O)n(Cc2cn(CCF)nn2)c1=O` (stereo not given) yielded a logP [4] of -0.86.

In the case of `CC(C)(C(=O)c1ccccc1I)c1cccnc1`, the logD [5] is reported as 2.19.

`O=C(/C=C/c1ccc(O)cc1)c1ccc(O)cc1O` showed a logP [6] of 1.91.

`O=C1CCC[C@@H]2[C@H]3CCC[N@+]4([O-])CCC[C@@H](CN12)[C@@H]34` showed a logD [7] of -0.86.

With `COc1ccc2cc(CCC(C)=O)ccc2c1` the logP [8] was 3.45.

With `CCCCCCCCCCOC(=O)c1cc(=O)[nH]c(=O)[nH]1` the logD [9] was 2.85.

`CC(=O)OCC(CCn1cnc2cnc(N)nc21)COC(C)=O` showed a logD [10] of 0.32.

`CC(C(=O)O)c1cccc(Oc2ccccc2)c1` (stereo not given) gave a logD [11] of 3.45.

Compound `Cn1ccc2cc(-c3nc4ccc(F)nc4o3)ccc21` has a logP [12] of 3.42.

For `Cc1cc2cc[nH]c2c(C(=O)Nc2ncccc2C)n1`, the logP [13] was 5.3.

Work on `CCCC(=O)OC(C)OC(=O)c1sc2cc(O)c(O)cc2c1Cl` (stereo not given) yielded a logD [14] of 2.16.

`COCCOc1ccccc1S(=O)(=O)NC(=O)Nc1nc(OC)nc(OC)n1` showed a logP [15] of 1.71.

In the case of `CCCN1CCO[C@H]2c3cc(O)ccc3OC[C@@H]21`, the logD [16] is reported as 1.97.

In the case of `CC(C(N)=O)c1ccc(-c2ccccc2)c(F)c1` (stereo not given), the logD [17] is reported as 3.2.

Compound `CCCC(=O)NCCC(=O)NCc1c(O)c(=O)cc(C)n1C` has a logD [18] of -0.7.

With `C=CCOc1ccccc1OCC(O)CNC(C)C` (stereo not given) the logD [19] was 2.25.

For `CN(C)c1ccc2c(c1)Cc1cc(I)ccc1-2`, the logD [20] was 2.47.

`Cc1cc(-n2[nH]c3c(cnc4ccccc43)c2=O)cs1` showed a logD [21] of 1.58.

In the case of `COc1ccc(COc2ccccc2C(N)=O)cc1`, the logP [22] is reported as 1.63.

In the case of `CCc1c(OC)cc(Cc2cnc(N)nc2N)cc1OC`, the logD [23] is reported as 2.72.

With `OCCN1CCC(COc2ccc(I)cc2)CC1` the logP [24] was 4.

With `COC(=O)C1(O)c2ccccc2-c2ccc(Cl)cc21` (stereo not given) the logP [25] was 2.86.

`CC(C)(c1ccc(O)cc1)c1ccc(O)cc1` gave a logP [26] of 3.41.

For `CC[C@@H](c1cccc(O)c1)[C@@H](C)CN(C)C`, the logP [27] was 2.77.

Work on `CC(C)OC(=O)C(NC(=O)c1cccnc1)n1cc(F)c(=O)[nH]c1=O` (stereo not given) yielded a logD [28] of 0.62.

`CSc1ccc2oc3ccc(C(=O)O)cc3c(=O)c2c1` showed a logD [29] of 3.4.

Work on `O=C1CN=C(c2cccc(Br)c2)c2cc(Br)ccc2N1` yielded a logP [30] of 3.88.

In the case of `CN(C)c1ccc(-c2nc3ccc(I)cc3o2)cc1`, the logD [31] is reported as 2.09.

`CC(=O)NC(C)C(=O)N1CCCC1C(=O)NC(C)(C)C` (stereo not drawn) (Ac-Ala-Pro-NHtBu; configuration not given here) gave a logD [32] of -0.39.

For `CN(C)Cc1cc(I)ccc1Sc1ccc(Cl)cc1N`, the logP [33] was 3.31.

With `ClC1(Cl)CC1(c1ccccc1)c1ccccc1` the logP [34] was 4.88.

`CCC(C)OC(=O)C(C(=O)OC(C)CC)=C1SC=CS1` (stereo not given) showed a logP [35] of 4.89.

Compound `CC(C)NCC(O)c1ccc2ccccc2c1` (stereo not given) has a logP [36] of 3.

`O=C1Nc2c(Cl)ccc(OCCF)c2C2(CCCCC2)N1` showed a logD [37] of 2.9.

`CC(C(c1ccccc1)c1ccccc1)[N+](=O)[O-]` (stereo not given) showed a logP [38] of 3.91.

With `Cc1ccnc2c1NC(=O)c1cccnc1N2C1CC1` the logD [39] was 1.81.

`C[C@H](CS)C(=O)N1C[C@@H](Sc2ccccc2)C[C@H]1C(=O)O` (relative stereo) showed a logD [40] of 2.16.

Work on `O=CC1=CC=C2C(C(=O)O)CCN2c2cc(Br)ccc21` (stereo not given) yielded a logP [41] of 3.6.

`NC(Cc1ccccc1)C(=O)OCn1ncc2c(=O)[nH]cnc21` (racemic) showed a logD [42] of 0.4.

`CC(C)NCC(O)COc1cccc(CC(N)=O)c1` (stereo not given) showed a logP [43] of 0.22.

With `CNc1ccc(/C=C/c2ccc(O)cc2)cc1` the logD [44] was 2.36.
